{"source": "patent US11124845B2", "about": "“PSMA-based molecular-genetic reporter system” (THE JOHNS HOPKINS UNIVERSITY, priority 2014, dated 2021)", "key": {"hNIS": {"biological_target": "T1, hNIS (Homo sapiens, UniProt Q92911)", "T1 construct": "expressed in transfected cells; host or cells: PC3-CAR cells infected in vitro with Ad-Track-hNIS (pAd-Track-CMV-NIS), implanted in matrigel into nude mice", "T1 sequence (Q92911 1-643)": "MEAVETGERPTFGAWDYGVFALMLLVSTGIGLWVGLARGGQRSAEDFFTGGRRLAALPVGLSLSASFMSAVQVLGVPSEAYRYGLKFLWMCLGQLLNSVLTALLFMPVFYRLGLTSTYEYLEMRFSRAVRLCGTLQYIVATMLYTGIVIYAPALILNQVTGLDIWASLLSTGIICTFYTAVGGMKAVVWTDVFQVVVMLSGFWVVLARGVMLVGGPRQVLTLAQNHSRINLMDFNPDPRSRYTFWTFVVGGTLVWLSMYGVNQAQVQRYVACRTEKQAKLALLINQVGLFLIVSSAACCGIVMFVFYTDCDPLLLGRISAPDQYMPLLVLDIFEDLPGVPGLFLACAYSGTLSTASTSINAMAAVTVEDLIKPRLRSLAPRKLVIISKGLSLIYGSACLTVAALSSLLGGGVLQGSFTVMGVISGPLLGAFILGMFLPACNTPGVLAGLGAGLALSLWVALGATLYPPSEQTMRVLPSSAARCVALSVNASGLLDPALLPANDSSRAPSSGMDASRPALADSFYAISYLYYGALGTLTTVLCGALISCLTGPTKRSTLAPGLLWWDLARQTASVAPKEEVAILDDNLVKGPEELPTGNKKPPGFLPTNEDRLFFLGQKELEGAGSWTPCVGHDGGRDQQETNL", "experiment": "Dynamic PET in matrigel suspension model, hNIS reporter", "format": "in vivo", "details": "nude mice", "description": "(§1) Studies were performed according to protocols approved by the Animal Care and Use Committee at Johns Hopkins University. A matrigel suspension model was developed to enable imaging of similar numbers of cells in vivo. Four- to six-week-old athymic male nude mice (Harlan Laboratories Inc., Frederick, Md.) were used for all experiments. 4×10^6 infected cells were injected subcutaneously in the presence of Matrigel (BD Biosciences, Bedford, Mass.) at a 2:1 (cell:matrigel) ratio.\n(§2) PET was performed for in vivo reporter comparison. […] [^124I]NaI was kindly provided by Dr. Jason Lewis (Memorial Sloan-Kettering Cancer Center, NY). Athymic nude mice contralaterally implanted with reporter or control expressing matrigel suspensions in the upper flanks were used for imaging. […] Mice were then placed in the prone position on the gantry of a GE eXplore VISTA small animal PET scanner (GE Healthcare Life Sciences, Pittsburgh, Pa.) and injected intravenously with ˜7.4 MBq (200 μCi) in 200 μL of PBS of each respective radiotracer. Images were acquired as a dynamic scan of 18 five-minute frames at 250 to 700 keV for ^18F and 400-700 keV for ^124I. Images were reconstructed using the FORE/2D-OSEM method (1 iteration, 16 subsets) and included correction for radioactive decay, scanner dead time, and scattered radiation. After PET imaging, the mobile mouse holder was placed on the gantry of an X-SPECT (Gamma Medica-Ideas, Salem, N.H.) small animal imaging device to acquire the corresponding CT. PET and CT data were co-registered using AMIDE software (sourceforge.net).\n(§3) To compare reporter-probe systems in vivo, a matrigel suspension model was developed (FIG. 2). […] The contralateral cells masses were generally within 30% as measured by GFP imaging in vivo (FIG. 3).\n(§4) The next day (48 hours after implantation), animals were subjected to a dynamic PET study whereby ˜7.4 MBq (200 μCi) of each respective radiotracer was administered intravenously and cellular uptake was quantified for a duration of 90 minutes. […]"}, "[1]": {"tested_on": "MDA-MB-231 cell lines transiently transfected with full-length and truncations of PSMA", "experiment": "In vitro radio uptake assay, cells transfected with non-viral PSMA vectors", "format": "cell-based", "details": "24 hours after transfection, 1 μCi", "description": "The basic expression vectors (FIG. 8A) were tested for the ability to uptake a radio-labeled PSMA-targeted molecule (^125I-YC27). […] Twenty-four hours after the transfection, cells were treated with 1 μCi of ^125I-YC27, washed twice and the uptake was measured."}, "HSV-sr39tk": {"tested_on": "HSV-sr39tk", "experiment": "Dynamic PET in matrigel suspension model, HSV-sr39tk reporter", "format": "in vivo, herpes simplex virus", "details": "nude mice", "description": "as §1, §2, §3, §4"}, "[2]": {"details": "PC3-CAR cells in matrigel, PET, SUV ratio"}}, "data": [{"compound": "[124I-].[Na+]", "note": "[[^124I]NaI]", "values": [{"measurement": "peak target-to-background ratio relative to control cells", "setting": "hNIS; [2]", "result": "3.13±0.20"}, {"measurement": "peak target-to-background ratio relative to muscle", "setting": "hNIS; [2]", "result": "4.96±0.65"}, {"measurement": "time after which signal-to-noise ratio greater than two (relative to muscle) could be detected", "setting": "hNIS; dynamic PET", "result": 20, "unit": "min"}]}, {"compound": "O=C(O)CCC(NC(=O)NC(CCCCNC(=O)c1ccc([125I])cc1)C(=O)O)C(=O)O", "note": "(stereo not shown) [^125I-YC27, 2-[3-[1-carboxy-5-(4-[^125I]iodo-benzoylamino)-pentyl]-ureido]-pentanedioic acid]", "values": [{"measurement": "specific uptake of the substrate", "setting": "[1]", "result": "Only full-length and N-terminally truncated PSMA were able to specifically uptake the substrate"}]}, {"compound": "Nc1nc2c(ncn2CCC(CO)C[18F])c(=O)[nH]1", "note": "(stereo not shown) [FHBG, 9-(4-[^18F]Fluoro-3-[hydroxymethyl]butyl)guanine]", "values": [{"measurement": "peak target-to-background ratio relative to control cells", "setting": "HSV-sr39tk; [2]", "result": "2.81±0.27"}, {"measurement": "peak target-to-background ratio relative to muscle", "setting": "HSV-sr39tk; [2]", "result": "4.99±0.38"}, {"measurement": "time after which signal-to-noise ratio greater than two (relative to muscle) could be detected", "setting": "HSV-sr39tk; dynamic PET", "result": 45, "unit": "min"}]}]}
